From PubChem BioAssay AID1745844 (Carcinogenic Potency Database (CPDB), 2022)
Active and inactive are the calls of the source. How the calls were made is not given here.

System: rodent lifetime carcinogenesis bioassay, tumor incidence TD50
Test: chronic cancer bioassays in animals – CPDB, compiled studies (AID 1745844)

Brc1cc(Br)c(-c2cc(Br)c(Br)cc2Br)cc1Br
TD50 (mouse, strain B6C3F1, females, by gavage, site: any site (literature study), lesion: several types, types named in the paper, dosed 26 weeks, study length 131 weeks): 0.338 mg/kg/day | TD50 (mouse, strain B6C3F1, females, by gavage, site: liver, lesion: hepatocellular adenoma + hepatocellular carcinoma + neoplastic nodule, dosed 26 weeks, study length 131 weeks): 0.402 mg/kg/day | TD50 (mouse, strain B6C3F1, females, by gavage, site: liver, lesion: hepatocellular carcinoma, dosed 26 weeks, study length 131 weeks): 0.534 mg/kg/day | TD50 (mouse, strain B6C3F1, females, by gavage, site: lung, lesion: alveolar/bronchiolar adenoma + alveolar/bronchiolar carcinoma, dosed 26 weeks, study length 131 weeks): 0.915 mg/kg/day | TD50 (mouse, strain B6C3F1, females, in feed, site: any site (literature study), lesion: several types, types named in the paper, dosed 105 weeks, study length 105 weeks): 0.362 mg/kg/day | TD50 (mouse, strain B6C3F1, females, in feed, site: liver, lesion: hepatocellular adenoma + hepatoblastoma + hepatocellular carcinoma, dosed 105 weeks, study length 105 weeks): 0.307 mg/kg/day | TD50 (mouse, strain B6C3F1, females, in feed, site: liver, lesion: hepatocellular adenoma + hepatocellular carcinoma, dosed 105 weeks, study length 105 weeks): 0.307 mg/kg/day | TD50 (mouse, strain B6C3F1, females, in feed, site: liver, lesion: hepatocellular adenoma, dosed 105 weeks, study length 105 weeks): 0.367 mg/kg/day | TD50 (mouse, strain B6C3F1, females, in feed, site: liver, lesion: hepatocellular carcinoma, dosed 105 weeks, study length 105 weeks): 0.588 mg/kg/day | TD50 (mouse, strain B6C3F1, females, in feed, site: lung, lesion: alveolar/bronchiolar adenoma + alveolar/bronchiolar carcinoma, dosed 105 weeks, study length 105 weeks): 19.1 mg/kg/day | TD50 (mouse, strain B6C3F1, males, by gavage, site: any site (literature study), lesion: several types, types named in the paper, dosed 26 weeks, study length 131 weeks): 0.418 mg/kg/day | TD50 (mouse, strain B6C3F1, males, by gavage, site: liver, lesion: hepatocellular adenoma + hepatocellular carcinoma + neoplastic nodule, dosed 26 weeks, study length 131 weeks): 0.285 mg/kg/day | TD50 (mouse, strain B6C3F1, males, by gavage, site: liver, lesion: hepatocellular carcinoma, dosed 26 weeks, study length 131 weeks): 0.381 mg/kg/day | TD50 (mouse, strain B6C3F1, males, in feed, site: any site (literature study), lesion: several types, types named in the paper, dosed 105 weeks, study length 105 weeks): 0.349 mg/kg/day | TD50 (mouse, strain B6C3F1, males, in feed, site: liver, lesion: hepatocellular adenoma + hepatoblastoma + hepatocellular carcinoma, dosed 105 weeks, study length 105 weeks): 0.262 mg/kg/day | TD50 (mouse, strain B6C3F1, males, in feed, site: liver, lesion: hepatocellular adenoma + hepatocellular carcinoma, dosed 105 weeks, study length 105 weeks): 0.262 mg/kg/day | TD50 (mouse, strain B6C3F1, males, in feed, site: liver, lesion: hepatocellular adenoma, dosed 105 weeks, study length 105 weeks): 0.233 mg/kg/day | TD50 (mouse, strain B6C3F1, males, in feed, site: liver, lesion: hepatocellular carcinoma, dosed 105 weeks, study length 105 weeks): 0.54 mg/kg/day | TD50 (mouse, strain B6C3F1, males, in feed, site: lung, lesion: alveolar/bronchiolar adenoma + alveolar/bronchiolar carcinoma, dosed 105 weeks, study length 105 weeks): 54.9 mg/kg/day | TD50 (rat, strain Fischer 344, females, by gavage, site: any site (literature study), lesion: several types, types named in the paper, dosed 25 weeks, study length 124 weeks): 0.365 mg/kg/day | TD50 (rat, strain Fischer 344, females, by gavage, site: liver, lesion: cholangiocarcinoma + hepatocellular carcinoma + neoplastic nodule, dosed 25 weeks, study length 124 weeks): 0.596 mg/kg/day | TD50 (rat, strain Fischer 344, females, by gavage, site: liver, lesion: cholangiocarcinoma, dosed 25 weeks, study length 124 weeks): 2.1 mg/kg/day | TD50 (rat, strain Fischer 344, females, by gavage, site: liver, lesion: hepatocellular adenoma + hepatocellular carcinoma + neoplastic nodule, dosed 25 weeks, study length 124 weeks): 0.645 mg/kg/day | TD50 (rat, strain Fischer 344, females, by gavage, site: liver, lesion: hepatocellular carcinoma, dosed 25 weeks, study length 124 weeks): 1.65 mg/kg/day | TD50 (rat, strain Fischer 344, females, by gavage, site: liver, lesion: neoplastic nodule, dosed 25 weeks, study length 124 weeks): 1.1 mg/kg/day | TD50 (rat, strain Fischer 344, females, in feed, site: any site (literature study), lesion: several types, types named in the paper, dosed 104 weeks, study length 104 weeks): 2.38 mg/kg/day | TD50 (rat, strain Fischer 344, females, in feed, site: liver, lesion: hepatocellular adenoma + hepatoblastoma + hepatocellular carcinoma, dosed 104 weeks, study length 104 weeks): 0.656 mg/kg/day | TD50 (rat, strain Fischer 344, females, in feed, site: liver, lesion: hepatocellular adenoma + hepatocellular carcinoma, dosed 104 weeks, study length 104 weeks): 0.656 mg/kg/day | TD50 (rat, strain Fischer 344, females, in feed, site: liver, lesion: hepatocellular adenoma, dosed 104 weeks, study length 104 weeks): 0.7 mg/kg/day | TD50 (rat, strain Fischer 344, females, in feed, site: liver, lesion: hepatocellular carcinoma, dosed 104 weeks, study length 104 weeks): 8.22 mg/kg/day | TD50 (rat, strain Fischer 344, females, in feed, site: mammary gland, lesion: fibroadenoma, dosed 104 weeks, study length 104 weeks): 1.59 mg/kg/day | TD50 (rat, strain Fischer 344, males, by gavage, site: any site (literature study), lesion: several types, types named in the paper, dosed 25 weeks, study length 118 weeks): 0.0645 mg/kg/day | TD50 (rat, strain Fischer 344, males, by gavage, site: liver, lesion: cholangiocarcinoma + hepatocellular carcinoma + neoplastic nodule, dosed 25 weeks, study length 118 weeks): 0.148 mg/kg/day | TD50 (rat, strain Fischer 344, males, by gavage, site: liver, lesion: cholangiocarcinoma, dosed 25 weeks, study length 118 weeks): 14.4 mg/kg/day | TD50 (rat, strain Fischer 344, males, by gavage, site: liver, lesion: hepatocellular adenoma + hepatocellular carcinoma + neoplastic nodule, dosed 25 weeks, study length 118 weeks): 0.151 mg/kg/day | TD50 (rat, strain Fischer 344, males, by gavage, site: liver, lesion: hepatocellular carcinoma, dosed 25 weeks, study length 118 weeks): 1.3 mg/kg/day | TD50 (rat, strain Fischer 344, males, by gavage, site: liver, lesion: neoplastic nodule, dosed 25 weeks, study length 118 weeks): 0.168 mg/kg/day | TD50 (rat, strain Fischer 344, males, in feed, site: any site (literature study), lesion: several types, types named in the paper, dosed 104 weeks, study length 104 weeks): 1.56 mg/kg/day | TD50 (rat, strain Fischer 344, males, in feed, site: liver, lesion: hepatocellular adenoma + hepatoblastoma + hepatocellular carcinoma, dosed 104 weeks, study length 104 weeks): 0.408 mg/kg/day | TD50 (rat, strain Fischer 344, males, in feed, site: liver, lesion: hepatocellular adenoma + hepatocellular carcinoma, dosed 104 weeks, study length 104 weeks): 0.408 mg/kg/day | TD50 (rat, strain Fischer 344, males, in feed, site: liver, lesion: hepatocellular adenoma, dosed 104 weeks, study length 104 weeks): 0.461 mg/kg/day | TD50 (rat, strain Fischer 344, males, in feed, site: liver, lesion: hepatocellular carcinoma, dosed 104 weeks, study length 104 weeks): 1.19 mg/kg/day

CCCCN(CCCC)C(=S)[S-].CCCCN(CCCC)C(=S)[S-].[Zn+2]
TD50 (mouse, strain B6AKF1, females, oral dosing, site: any site (literature study), lesion: several types, types named in the paper, dosed 76 weeks, study length 76 weeks): 2330 mg/kg/day (inactive) | carcinogen call (mouse, strain B6AKF1, females, oral dosing, site: liver, lesion: hepatoma, dosed 76 weeks, study length 76 weeks): negative (inactive) | TD50 (mouse, strain B6AKF1, females, oral dosing, site: lung, lesion: adenoma, dosed 76 weeks, study length 76 weeks): 1090 mg/kg/day (inactive) | carcinogen call (mouse, strain B6AKF1, males, oral dosing, site: any site (literature study), lesion: several types, types named in the paper, dosed 76 weeks, study length 76 weeks): negative (inactive) | carcinogen call (mouse, strain B6AKF1, males, oral dosing, site: liver, lesion: hepatoma, dosed 76 weeks, study length 76 weeks): negative (inactive) | carcinogen call (mouse, strain B6AKF1, males, oral dosing, site: lung, lesion: adenoma, dosed 76 weeks, study length 76 weeks): negative (inactive) | TD50 (mouse, strain B6C3F1, females, oral dosing, site: any site (literature study), lesion: several types, types named in the paper, dosed 76 weeks, study length 76 weeks): 731 mg/kg/day (inactive) | carcinogen call (mouse, strain B6C3F1, females, oral dosing, site: liver, lesion: hepatoma, dosed 76 weeks, study length 76 weeks): negative (inactive) | TD50 (mouse, strain B6C3F1, females, oral dosing, site: lung, lesion: adenoma, dosed 76 weeks, study length 76 weeks): 2330 mg/kg/day (inactive) | TD50 (mouse, strain B6C3F1, males, oral dosing, site: any site (literature study), lesion: several types, types named in the paper, dosed 76 weeks, study length 76 weeks): 252 mg/kg/day (inactive) | TD50 (mouse, strain B6C3F1, males, oral dosing, site: liver, lesion: hepatoma, dosed 76 weeks, study length 76 weeks): 680 mg/kg/day (inactive) | TD50 (mouse, strain B6C3F1, males, oral dosing, site: lung, lesion: adenoma, dosed 76 weeks, study length 76 weeks): 1050 mg/kg/day (inactive)
